What all share (settings): in vivo
Assay [1] concerns downy mildew (Pseudoperonospora cubensis).
For assay [2], the system named is late blight (Phytophthora infestans).
The subject of assay [3] is downy mildew (Pseudoperonospora cubensis). The source holds these as a separate data set.
The test system is the same in assay [4]. This is another data set of the same source.
The test system is the same in assay [5]. This is another data set of the same source.
Assay [6] has as its system late blight (Phytophthora infestans). The source holds these as a separate data set.
In assay [7] the test system is downy mildew (Pseudoperonospora cubensis). The source holds these as a separate data set.

Values joined by “and” are separate entries in the source; they are usually repeats but may differ in a detail not shown here. Equal entries are not always repeated. Where two headings read alike, the source gives them in different places.

Turning to `COCC(=O)N(c1c(C)cccc1C)C(C)C(=O)OC` (racemic) [Metalaxyl, methyl N-(2-methoxyacetyl)-N-(2,6-xylyl)-DL-alaninate], the Incidence rate in assay [1] is 60% and 100%.

Regarding `COc1ccc(C(=CC(=O)N2CCOCC2)c2ccc(Cl)cc2)cc1OC` [Dimethomorph, (E,Z)-4-[(3-(4-chlorophenyl)-3-(3,4-dimethoxyphenyl)acryloyl]morpholine], the Incidence rate in assay [1] was 50% and 60%; in assay [2], 85% and 100%.

As for `CO/C=C(/C(=O)OC)c1ccccc1Oc1cc(Oc2ccccc2C#N)ncn1` [Compound (a), methyl (E)-2-{2-[6-(2-cyanophenoxy)pyrimidin-4-yloxy]phenyl}-3-methoxyacrylate], the “Theoretical incidence rate (Colby's formula)” value in assay [1] is 100 (100) %.

With `O=P([O-])([O-])O.[K+].[K+]` [K2HPO4, dipotassium hydrogenphosphate], the Incidence rate in assay [3] and in assay [4] was 95% each time.

On to `O=P([O-])([O-])O.[Na+].[Na+]` [Na2HPO4, disodium hydrogenphosphate], for which the Incidence rate in assay [3] and in assay [4] was 100% in each case.

Regarding `Cc1ccc(-c2c(Cl)nc(C#N)n2S(=O)(=O)N(C)C)cc1` [Compound No. 1, 4-chloro-2-cyano-1-dimethylsulfamoyl-5-(4-methylphenyl)imidazole], the Incidence rate is 85% and 90% in assay [4]; 87% and 95% in assay [5]; 47% and 50% and 31% and 37% in assay [6]. For the same compound, the “Lesion-free Area Ratio” value in assay [7] is given as 65%.

Turning to `CO/N=C(/C(=O)OC)c1ccccc1COc1ccccc1C` [Compound (b), methyl (E)-methoxyimino[α-(o-tolyloxy)-O-tolyl]acetate], the Incidence rate in assay [1] was 100%.

`CCNC(=O)NC(=O)C(C#N)=NOC` [Cymoxanil, 1-(2-cyano-2-methoxyiminoacetyl)-3-ethylurea] showed an Incidence rate in assay [2] of 100%.

With `OP(O)O` [H2(PO3H), phosphorous acid], the Incidence rate in assay [3] and in assay [4] was 75% in each case.

Values taken from US7323188B2 (priority 1997, dated 2008).
